Series [1] has as its target T1, C-X-C chemokine receptor type 1 (Homo sapiens, UniProt P25024).
T1 sequence (P25024 whole entry): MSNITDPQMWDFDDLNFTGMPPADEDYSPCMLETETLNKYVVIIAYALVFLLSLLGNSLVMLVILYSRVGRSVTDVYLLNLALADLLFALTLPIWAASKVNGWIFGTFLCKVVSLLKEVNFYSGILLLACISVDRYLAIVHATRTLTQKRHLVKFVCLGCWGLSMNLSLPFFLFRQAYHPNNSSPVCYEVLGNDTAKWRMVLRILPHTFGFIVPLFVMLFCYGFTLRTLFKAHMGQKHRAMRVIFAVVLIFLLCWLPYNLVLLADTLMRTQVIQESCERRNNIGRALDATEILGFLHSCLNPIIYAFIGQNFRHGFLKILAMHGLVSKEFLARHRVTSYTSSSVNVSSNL
As to the kind of experiment: Displacement of [125I]IL-8 from CXCR1 in human neutrophils incubated for 3 hrs by gamma counting method. In general terms: In a radioligand displacement assay an active substance lowers the binding of a labelled ligand.

In series [2] the target is T2, C-X-C chemokine receptor type 2 (Homo sapiens, UniProt P25025).
T2 sequence (P25025 whole entry): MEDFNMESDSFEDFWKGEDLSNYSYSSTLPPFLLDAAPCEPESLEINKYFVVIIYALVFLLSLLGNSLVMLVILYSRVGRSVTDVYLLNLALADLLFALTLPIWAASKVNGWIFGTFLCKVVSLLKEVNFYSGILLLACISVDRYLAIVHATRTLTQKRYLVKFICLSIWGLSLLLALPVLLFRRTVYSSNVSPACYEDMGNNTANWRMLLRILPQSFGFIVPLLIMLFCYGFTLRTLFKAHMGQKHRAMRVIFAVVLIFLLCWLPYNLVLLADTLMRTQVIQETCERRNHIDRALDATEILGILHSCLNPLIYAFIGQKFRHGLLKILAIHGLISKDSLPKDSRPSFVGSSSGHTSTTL
As to the kind of experiment: Displacement of [125I]IL-8 from CXCR2 in human neutrophils incubated for 3 hrs by gamma counting method.

The target in series [3] is T2, C-X-C chemokine receptor type 2. The series is described as follows: Antagonist activity at CXCR2 (unknown origin) expressed in human U2OS cells cp-expressing betaarrestin-2/TEV protease and beta lactamase assessed as effect on beta-arrestin2 recruitment preincubated for 30 mins followed by IL-8 addition and further incubated for 5 hrs subsequently adding CCF4-AM staining and measured after 2 hrs by Tango assay. Format: cell-based. (Arrestin recruitment assays detect the binding of arrestin to an activated receptor.)

Series [4] shares this target. As to the kind of experiment: Displacement of [125I]IL-8 from human CXCR2 expressed in CHO cells. In kind it is cell-based.
The species named for series [5] is Homo sapiens. The series is described as follows: Selectivity ratio of IC50 for antagonist activity at CXCR1 (unknown origin) stably expressed in HEK293 cells co-expressing Galpha16 to antagonist activity at CXCR2 (unknown origin) stably expressed in HEK293 cells co-expressing Galpha16. In kind it is cell-based.
For series [6], the target named is T2, C-X-C chemokine receptor type 2. As to the kind of experiment: Antagonist activity at CXCR2 (unknown origin) stably expressed in HEK293 cells co-expressing Galpha16 assessed as reduction in IL-8-induced intracellular calcium change incubated for 10 mins by Fluo-4AM dye based fluorescence assay. Format: functional, cell-based.
For series [7], the target named is T1, C-X-C chemokine receptor type 1. As to the kind of experiment: Antagonist activity at CXCR1 (unknown origin) stably expressed in HEK293 cells co-expressing Galpha16 assessed as reduction in IL-8-induced intracellular calcium change incubated for 10 mins by Fluo-4AM dye based fluorescence assay. In kind it is functional, cell-based. On the technique in general: Calcium assays in cells follow changes in intracellular calcium, usually with a dye or a luminescent sensor.

Series [8] addresses T2, C-X-C chemokine receptor type 2. As to the kind of experiment: Antagonist activity at CXCR2 (unknown origin).
The species named for series [9] is Homo sapiens. As to the kind of experiment: Selectivity ratio of IC50 for displacement of [125I]IL-8 from CXCR1 (unknown origin) to IC50 for displacement of [125I]IL-8 from CXCR2 (unknown origin).
Series [10] deals with T2, C-X-C chemokine receptor type 2. The series is described as follows: Antagonist activity at GFP-tagged CXCR2 (unknown origin) expressed in 293T cells assessed as suppression of IL-8-induced inhibition of forskolin-stimulated cAMP accumulation preincubated for 10 mins followed by IL-8 addition and measured after 10 mins by cAMP assay. In kind it is functional, cell-based.

Series [11] has the same target. The series is described as follows: Antagonist activity at CXCR2 in human U2OS cells assessed as effect on beta-arrestin2 recruitment by CCF4-AM staining based Tango assay. Format: cell-based.
Series [12] has as its system A375-SM. The series is described as follows: Antitumor activity against human A375SM cells xenografted in athymic nude mice assessed as reduction in tumor volume at 100 mg/kg, po for 21 days. Format: functional.
Series [13] deals with A375-SM. The series is described as follows: Antitumor activity against human A375SM cells xenografted in athymic nude mice assessed as reduction in blood vessels formation at 100 mg/kg, po for 21 days and measured on day 50 by immunohistochemistry relative to control. In kind it is functional. The arrangement: scale not given: the % may be the effect or the level left.
Series [14] concerns the target T3, C-X-C chemokine receptor type 2 (Homo sapiens) (UniProt P25025).
T3 sequence (whole entry): T2 sequence (P25025 whole entry)
The series is described as follows: Displacement of [125I]-IL-8 from human CXCR2 expressed in CHO cells membrane at 20 uM relative to control. Format: cell membranes.

In series [15] the target is T2, C-X-C chemokine receptor type 2. As to the kind of experiment: Antagonist activity at CXCR2 in human neutrophils assessed as reduction in GROalpha stimulated intracellular calcium mobilisation by FLIPR assay. In kind it is functional, cell-based.
Series [16] in a line: Oral bioavailability in rat. Format: ADME, organism-based. The note with it: in vivo.
The subject of series [17] is SK-OV-3. As to the kind of experiment: Antitumor activity against human SKOV3 cells xenografted in athymic Nu/Nu mouse assessed as reduction in tumor volume at 10 mg/kg/day, ip co-treated with sorafenib 30 mg/kg, po relative to sorafenib alone. The arrangement: scale not given: the % may be the effect or the level left. In kind it is functional.

For orientation: IC50 means the midpoint of a concentration-inhibition curve. The term inhibition denotes the relative decrease from the control value, in per cent. By bioavailability is commonly meant dose-corrected exposure relative to a reference, in per cent.

Consider `CCN(CC)CCCCNc1nc2cc(Cl)c(Cl)cc2nc1-c1cc2ccccc2o1`, for which the results for the IC50 in series [1] and in series [2] were 230 nM and 30 nM, respectively.

`C[C@@H](NC1=C(C(=O)Nc2ccc(Cl)c(C(F)(F)F)c2)C(=O)CC(C)(C)C1)c1ccccc1`: in series [3], the IC50 amounted to 2500 nM.

In turn, `CC[C@@H](Nc1c(Nc2ccnc(C(=O)N(C)C)c2O)c(=O)c1=O)c1ccc(C)o1` showed an IC50 in series [4] of 2 nM.

As for `O=C(c1cccc(Nc2c(NC3C[C@@H]4CC[C@H]3C4)c(=O)c2=O)c1O)N1CCCC1` (stereo not given in full), the Ratio IC50 in series [5] is 60. The IC50 in [6] worked out at 48 nM; in series [7], 2900 nM.

In the case of `CCN(CC)Nc1c(Nc2cccc(C(=O)N(C)C)c2O)c(=O)c1=O`, inhibition in series [8] was half-maximal at 0.12 nM (IC50).

Take `O=C(Nc1ccccc1)Nc1ccc([N+](=O)[O-])cc1O`: the Ratio IC50 in [9] was determined as 433.

Regarding `CC(=O)c1c(C)oc2c1cc(NS(=O)(=O)c1ccc(C(C)(C)C)cc1)c1ccccc12`, the IC50 in series [3] was 7600 nM.

`CCSc1nnc2n(-c3ccccc3)c(=O)c3c4c(sc3n12)CCC[C@H]4C`: in series [10], the IC50 was found to be 7800 nM.

`CC1(C)CC(=O)C(C(=S)Nc2ccccc2)=C(NCc2ccccc2)C1`: the IC50 in series [11] came to 6300 nM.

In the case of `N#Cc1ccc(NC(=O)Nc2ccccc2Br)c(O)c1Br`, the Ratio IC50 in [9] was 57.

As for `CC[C@@H](Nc1c(Nc2cccc(C(=O)N(C)C)c2O)c(=O)c1=O)c1ccc(C)o1` [NAVARIXIN ANHYDROUS], the “fold change (FC)” value in series [12] was found to be 4.5. In series [13], the Activity stood at 45%.

In the case of `Cc1ccc([C@H](Nc2c(Nc3cccc(S(=O)(=O)N4CCN(C)CC4)c3O)c(=O)c2=O)[C@H]2CCCS2)o1`, the IC50 in [8] came out at 17 nM.

In series [14], `CS(=O)(=O)c1ccc(C(=O)Nc2ccc(F)cc2)c[n+]1[O-]` yielded an inhibition of 93%.

Consider `Sc1nc(-c2ccccc2Cl)nn1Cc1cccc(Cl)c1`, for which the IC50 in [15] came out at 48 nM. For the same compound, the bioavailability in series [16] is 61%.

Turning to `O=C(Nc1ccc([N+](=O)[O-])cc1O)Nc1ccccc1Br`, the Activity in series [17] is listed as 42%.

Values taken from ChEMBL document CHEMBL4321855, “Targeting CXCR1/2: The medicinal potential as cancer immunotherapy agents, antagonists research highlights and challenges ahead” (Eur J Med Chem, 2020).
